From PubChem BioAssay (NCI) come the findings set out here.

SMILES strings stand for the structures.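 These data come from cells grown in 96-well plates and exposed to compound for 48 hours at five concentrations. TGI denotes the concentration required for complete inhibition of growth.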

Among the test systems are SK-MEL-2 melanoma; MDA-MB-435; 786-0 renal; LOX IMVI melanoma; NCI-H460 lung; SF-295 CNS; HCT-116 colon; RPMI-8226 leukemia; HT29 colon; PC-3 prostate; CAKI-1 renal; HS 578T breast; SNB-75 CNS; COLO 205 colon; SW-620 colon; HCC-2998 colon; OVCAR-4 ovarian.
Holding throughout (assay): NCI tumour cell line growth inhibition, 48 h

As for `CNC(=O)C(C)NC(=O)C(Cc1ccccc1)NC(=O)OC(C)(C)C` (stereo unspecified), the TGI with SK-MEL-2 melanoma, in the assay with MDA-MB-435, in the assay on 786-0 renal, in the assay with LOX IMVI melanoma, in the assay on NCI-H460 lung and with SF-295 CNS was > 100 µM throughout. In addition, the TGI in the assay on HCT-116 colon, in the assay on RPMI-8226 leukemia, in the assay on HT29 colon, in the assay on PC-3 prostate, with CAKI-1 renal and with HS 578T breast was > 100 µM in each case. In addition, the TGI with SNB-75 CNS, with COLO 205 colon, in the assay with SW-620 colon and in the assay with HCC-2998 colon was > 100 µM throughout.

In the case of `CC1=C(C#N)C(=O)N(/N=C/c2ccc(Cl)cc2)C(=O)/C1=c1\o/c(=C2/C(=O)N(/N=C/c3ccc(Cl)cc3)C(=O)C(C#N)=C2C)c2nccnc12`, the TGI in the assay on SK-MEL-2 melanoma, with MDA-MB-435, in the assay on 786-0 renal, with LOX IMVI melanoma, with NCI-H460 lung and in the assay with SF-295 CNS was > 100 µM throughout. Moreover, the TGI in the assay with HCT-116 colon, in the assay on RPMI-8226 leukemia, in the assay with HT29 colon, in the assay with PC-3 prostate, in the assay with CAKI-1 renal and in the assay on HS 578T breast was > 100 µM each time. The TGI with SNB-75 CNS was 85.3 µM; in the assay on COLO 205 colon, > 100 µM; in the assay with OVCAR-4 ovarian, > 100 µM; with SW-620 colon, > 100 µM; with HCC-2998 colon, > 100 µM.

As for `O=C(n1[nH]c(=O)n(-c2ccc([N+](=O)[O-])cc2)c1=O)C(Cl)(Cl)Cl`, the TGI in the assay on SK-MEL-2 melanoma, with MDA-MB-435, with 786-0 renal, in the assay with LOX IMVI melanoma, in the assay on NCI-H460 lung and with SF-295 CNS was > 75 µM each time. Moreover, the TGI in the assay with HCT-116 colon, with RPMI-8226 leukemia, in the assay on HT29 colon, with PC-3 prostate, with CAKI-1 renal and with HS 578T breast was > 75 µM in each case. Further, the TGI in the assay on SNB-75 CNS, in the assay with COLO 205 colon, in the assay on OVCAR-4 ovarian, in the assay on SW-620 colon and in the assay on HCC-2998 colon was > 75 µM throughout.

With `O=c1oc2ccccc2c(O)c1C(c1ccc2ccccc2c1)c1c(O)c2ccccc2oc1=O`, the TGI is > 100 µM with SK-MEL-2 melanoma; 59.7 µM in the assay with MDA-MB-435; 74.7 µM in the assay with 786-0 renal; > 100 µM with LOX IMVI melanoma; 73.2 µM with NCI-H460 lung; > 100 µM with SF-295 CNS. For the same compound, the TGI in the assay on HCT-116 colon was > 100 µM; with RPMI-8226 leukemia, > 100 µM; with HT29 colon it was 33.8 µM; with PC-3 prostate, > 100 µM; in the assay on CAKI-1 renal, 54.7 µM; in the assay on HS 578T breast, 70.6 µM. Further, the TGI with SNB-75 CNS is 48.7 µM; in the assay on COLO 205 colon, 78.2 µM; in the assay on OVCAR-4 ovarian it was > 100 µM; with SW-620 colon, 87.7 µM; in the assay with HCC-2998 colon, 32.8 µM.

For `CC(C)[Si](OCC/C=C/C1CCC(=O)C1C(O)C1CCCCC1)(C(C)C)C(C)C` (stereo unspecified), the TGI in the assay on SK-MEL-2 melanoma is 26.9 µM; with MDA-MB-435, 34.5 µM; in the assay with 786-0 renal, 29.3 µM; in the assay on LOX IMVI melanoma, 32.7 µM; in the assay with NCI-H460 lung it was 30.7 µM; in the assay on SF-295 CNS, 31.8 µM. Moreover, the TGI in the assay on HCT-116 colon amounted to 28 µM; in the assay on RPMI-8226 leukemia, 32.8 µM; in the assay on HT29 colon, 26.2 µM; in the assay on PC-3 prostate, 31.5 µM; with CAKI-1 renal it was 28.5 µM; in the assay with HS 578T breast, 36.5 µM. For the same compound, the TGI with SNB-75 CNS worked out at 30.1 µM; in the assay on COLO 205 colon, 35.5 µM; with OVCAR-4 ovarian it was 38.6 µM; with SW-620 colon it was 31.3 µM; in the assay on HCC-2998 colon, 23.2 µM.

In the case of `c1ccc2c(c1)n1c(N3CCOCC3)[n+]3ccccc3c1c1c3cccc[n+]3c(N3CCOCC3)n21`, the TGI in the assay with SK-MEL-2 melanoma, in the assay on MDA-MB-435, with 786-0 renal, with LOX IMVI melanoma, in the assay on NCI-H460 lung and in the assay with SF-295 CNS was > 100 µM in each case. Moreover, the TGI in the assay with HCT-116 colon, with RPMI-8226 leukemia, in the assay on PC-3 prostate, with CAKI-1 renal, in the assay with HS 578T breast and in the assay on SNB-75 CNS was > 100 µM in each case. Further, the TGI in the assay with COLO 205 colon, with OVCAR-4 ovarian, in the assay with SW-620 colon and with HCC-2998 colon was > 100 µM in each case.

Turning to `O=c1c2cc([N+](=O)[O-])cnc2sn1-c1ccc(Oc2ccccc2)cc1`, the TGI in the assay on SK-MEL-2 melanoma, in the assay with MDA-MB-435, with 786-0 renal, in the assay with LOX IMVI melanoma, in the assay with NCI-H460 lung and in the assay on SF-295 CNS was > 100 µM throughout. Also, the TGI with HCT-116 colon is > 100 µM; in the assay with RPMI-8226 leukemia it was > 100 µM; in the assay on HT29 colon it was > 100 µM; in the assay with PC-3 prostate, > 100 µM; in the assay with HS 578T breast, 96.5 µM; in the assay on SNB-75 CNS, > 100 µM. Further, the TGI in the assay on COLO 205 colon, with OVCAR-4 ovarian, with SW-620 colon and in the assay on HCC-2998 colon was > 100 µM throughout.
